Data on nine molecules can be found in patent US20180207276A1, “MODIFIED THERAPEUTIC AGENTS AND COMPOSITIONS THEREOF” (THE CALIFORNIA INSTITUTE FOR BIOMEDICAL RESEARCH, priority 2015, published 2018).

In series [1] the target is T1, LGR7 (Homo sapiens, UniProt Q9HBX9).
T1 construct: expressed in transfected cells; host or cells: HEK293T cells stably expressing recombinant LGR7, transduced with CRE-Luc lentivirus
T1 sequence (Q9HBX9 1-757): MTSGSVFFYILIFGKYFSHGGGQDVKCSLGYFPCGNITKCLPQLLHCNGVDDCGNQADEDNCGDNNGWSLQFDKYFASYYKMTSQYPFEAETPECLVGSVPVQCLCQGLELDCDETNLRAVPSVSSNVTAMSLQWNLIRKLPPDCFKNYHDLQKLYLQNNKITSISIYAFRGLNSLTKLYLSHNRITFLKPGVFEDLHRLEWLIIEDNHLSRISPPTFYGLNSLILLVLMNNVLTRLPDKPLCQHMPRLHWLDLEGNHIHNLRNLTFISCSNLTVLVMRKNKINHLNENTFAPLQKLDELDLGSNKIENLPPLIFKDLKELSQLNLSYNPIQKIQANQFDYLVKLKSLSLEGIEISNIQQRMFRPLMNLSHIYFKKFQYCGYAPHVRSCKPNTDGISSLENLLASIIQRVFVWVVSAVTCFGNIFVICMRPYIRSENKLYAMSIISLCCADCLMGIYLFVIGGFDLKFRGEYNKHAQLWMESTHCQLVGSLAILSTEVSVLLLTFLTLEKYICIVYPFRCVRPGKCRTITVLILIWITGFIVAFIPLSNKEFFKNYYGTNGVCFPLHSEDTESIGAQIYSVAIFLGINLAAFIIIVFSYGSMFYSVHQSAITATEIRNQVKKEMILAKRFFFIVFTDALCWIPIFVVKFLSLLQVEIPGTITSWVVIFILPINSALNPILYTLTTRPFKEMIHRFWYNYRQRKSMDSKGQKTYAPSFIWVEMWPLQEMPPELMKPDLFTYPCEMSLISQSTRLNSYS
The series is described as follows: LGR7 CRE-Luc reporter gene assay (bioactivity of relaxin peptides). The following applies: HEK293T cells expressing LGR7 and CRE-Luc; for Activity, fold drop compared to relaxin: fold drop relative to relaxin; for pEC50: 18 hours incubation, luciferase readout. Format: cell-based. On the procedure:
Relaxin 2 signals through leucine-rich repeat-containing GPCRs (i.e LGR7 (RFXR1)). The bioactivity of wild-type relaxin peptides was determined based on the stimulation of adenylate cyclase activity in HEK293T cells stably expressing recombinant LGR7. Stable LGR7 expressing cells were maintained in Dulbecco's modified Eagle's medium/F-12 media supplemented with 200 ng/ml Zeocin (Invitrogen). A cyclic AMP responsive element driven luciferase (CRE-Luc) reporter line was generated by lentiviral transduction of these LGR7 expressing HEK293T cells with CRE-Luc lentivirus (Qiagen) and selected with puromycine (2 μg/mL) for two weeks. A reporter gene assay was used to detect cAMP levels and LGR7 activation by relaxin.
Assay detail: HEK293T cells expressing LGR7 and CRE-Luc are seeded at a density of 5×10^3 cells per well in 50 μL of Dulbecco's modified Eagle's medium/F-12 medium containing 10% FBS in 384-well solid bottom white plates. Cells are pre-incubated at 37° C. overnight. Different concentrations of relaxin peptides (from 0.01 nM to 1000 nM) were added in triplicate, incubated for 18 hours and luciferase activity was detected by adding […], of Bright Glo (Promega). Luminescence was recorded on Envision (Perkin Elmer). EC50 is calculated after non-linear curve fitting (see FIG. 2 for relaxin H2 dose response curve).

Series [2] can be described thus: Mouse in vivo PK study for half-life extension. The arrangement: species or system CD1 female mice. The following applies: 0.3 mg/kg in NH4Ac buffer, plasma levels by cell-based reporter gene assay; for half-life: female, CD1, sc. The procedure: Lipid conjugated relaxin or other therapeutic agents were dosed in mice using sc, po, iv dosing. Plasma levels of TA were determined by LGR7 activation at different time points (e.g., i.v. PK 5 min, 0.5h, 1h, 2h 4h, 8h, 24h, 48h).
Background: In a reporter assay the amount or activity of a reporter protein is the signal.

Series [3] in a line: in vivo. The following applies: female, Dahl salt sensitive (DSS), rat, plasma, sc, 0.3 mg/kg.
Method: To ensure accurate determination of active relaxins, plasma samples collected at intervals between 0-24 hrs were analyzed using the cell-based reporter gene assay.
Bioanalysis: Serum samples were diluted (1:100) in 5 point serial dilutions (1:3) and measured RXFP1 luciferase reporter activity following assay protocol. Injected peptide were used as a standard to get standard curve and obtained parameters for Bottom, Top, EC50, Hill Slope. Obtained activity values (RLU) were selected (in the linear range of the standard curve) were used to calculate the concentrations in plasma (nmol/L) using equation from standard curve (Y=Bottom+(Top-Bottom)/(1+10̂((Log IC50−X)*Hill Slope))

pEC50: −log10 of the molar value. Positions of bridges follow the written chain, without caps; N, C: chain ends. Non-standard residues stand in square brackets, D forms with d. Chains are numbered I, II in the order given. No end group written: not given here. *: point of attachment. X1 = O=C(O)CCCCCCCCCCCCCCCCC(=O)N[C@@H](CCCCNC(=O)CCOCCOCCNC(=O)CCOCCOCCNC(=O)C*)C(=O)O; X2 = O=C(O)CCCCCCCCCCCCCCCCC(=O)N[C@@H](CCCCn1cc(COCCOCCOCCOCCOCCNC(=O)C*)nn1)C(=O)O; X3 = CCCCCCCCCCCCCCCCCC(=O)N[C@@H](CCCCNC(=O)CCOCCOCCOCCOCCOCCNC(=O)C*)C(=O)O; X4 = CCCCCCCCCCCCCC(=O)N[C@@H](CCCCNC(=O)CCOCCOCCOCCOCCOCCNC(=O)C*)C(=O)O; pGlu = O=C1CC[C@@H](C(=O)O)N1

On to `CC[C@H](C)[C@@H]1NC(=O)[C@H](C)NC(=O)[C@H]([C@@H](C)CC)NC(=O)[C@H](CCC(N)=O)NC(=O)[C@H](C)NC(=O)[C@H](CCCNC(=N)N)NC(=O)[C@H](C(C)C)NC(=O)[C@H](CC(C)C)NC(=O)[C@H](CCC(=O)O)NC(=O)[C@H](CCCNC(=N)N)NC(=O)CNC(=O)[C@@H](NC(=O)[C@H](CC(C)C)NC(=O)[C@H](CCCCN)NC(=O)[C@@H](NC(=O)[C@@H](NC(=O)[C@H](CCC(=O)O)NC(=O)[C@H](CCC(=O)O)NC(=O)[C@H](CCSC)NC(=O)[C@H](Cc2c[nH]c3ccccc23)NC(=O)[C@H](CO)NC(=O)[C@H](C)N)C(C)C)[C@@H](C)CC)CSSC[C@@H]2NC(=O)[C@@H](NC(=O)[C@H](CCCCN)NC(=O)[C@H](CC(N)=O)NC(=O)[C@H](C)NC(=O)[C@H](CC(C)C)NC(=O)[C@H](C)NC(=O)[C@H](CO)NC(=O)[C@H](Cc3ccc(O)cc3)NC(=O)[C@H](CSCC(=O)NCCOCCOCCOCCOCCOCCOCCOCCOCCC(=O)NCCCC[C@H](NC(=O)CCCCCCCCCCCCCCCCC(=O)O)C(=O)O)NC(=O)[C@@H](N)CCC(N)=O)CSSC[C@H](NC(=O)CNC(=O)[C@H](C(C)C)NC(=O)[C@H](Cc3c[nH]cn3)NC2=O)C(=O)N[C@@H]([C@@H](C)O)C(=O)N[C@@H](CCCCN)C(=O)N[C@@H](CCCNC(=N)N)C(=O)N[C@@H](CO)C(=O)N[C@@H](CC(C)C)C(=O)N[C@@H](C)C(=O)N[C@@H](CCCNC(=N)N)C(=O)N[C@@H](Cc2ccccc2)C(=O)N[C@H](C(=O)O)CSSC[C@@H](C(=O)NCC(=O)N[C@@H](CCSC)C(=O)N[C@@H](CO)C(=O)N[C@H](C(=O)N[C@@H](Cc2c[nH]c3ccccc23)C(=O)N[C@@H](CO)C(=O)O)[C@@H](C)O)NC1=O` [compound 8], for which, in series [1], the “Activity, fold drop compared to relaxin” value is listed as 8. This molecule also showed a half-life in series [2] of 570 min.
In the case of “I: ASWMEEVIKLCGRELVRAQIAICGMSTWS / II: QC(X2)YSALANKCCHVGCTKRSLARFC (disulfide I:11-II:11, I:23-II:24, II:10-II:15) [compound 3]”, in series [1], the pEC50 is 9.68 and the “Activity, fold drop compared to relaxin” value is recorded as 12. The half-life in series [2] was 360 min.
In the case of “I: ASWMEEVIKLCGRELVRAQIAICGMSTWS / II: QC(X3)YSALANKCCHVGCTKRSLARFC (disulfide I:11-II:11, I:23-II:24, II:10-II:15) [compound 9]”, the “Activity, fold drop compared to relaxin” value in series [1] was determined as 10. Further, the half-life in series [2] was 204 min.
On the same counts, the results for “I: ASWMEEVIKLCGRELVRAQIAICGMSTWS / II: QC(X4)YSALANKCCHVGCTKRSLARFC (disulfide I:11-II:11, I:23-II:24, II:10-II:15) [compound 7]” are 2 and 480 min.
On the same counts, the results for “I: ASWMEEVIKLCGRELVRAQIAICGMSTWS / II: QLYSALANKCCHC(X1)GCTKRSLARFC (disulfide I:11-II:11, I:23-II:24, II:10-II:15) [compound 2]” are 15 and 480 min.
With “I: H-ASWMEEVIKLCGRELVRAQIAICGMSTWS / II: H-QC(X1)YSALANKCCHVGCTKRSLARFC (disulfide I:11-II:11, I:23-II:24, II:10-II:15) [compound 1]”, in series [1], the pEC50 is 9.68 and the “Activity, fold drop compared to relaxin” value amounted to 12. The molecule further showed a half-life in series [2] of 480 min.
For the molecule “I: H-ASWMEEVIKLCGRELVRAQIAICGMSTWS / II: [pGlu]C(X1)YSALANKCCHVGCTKRSLARFC (disulfide I:11-II:11, I:23-II:24, II:10-II:15) [compound 5]”, in series [1], the “Activity, fold drop compared to relaxin” value worked out at 12. For the same molecule, the half-life in series [3] was 960 min.
With “Relaxin-B:D1A (chain 1 ASWMEEVIKLCGRELVRAQIAICGMSTWS; chain 2 QLYSALANKCCHVGCTKRSLARFC) [unconjugated relaxin analog with D1A substitution in the B chain]”, in series [2], the “Half-life (mouse, sc)” value was 48 min.
On the same count and under the same terms, the value for Relaxin-wt [reference compound] was 42 min.

One may read the half-life as how long it takes for the measured level to halve. For orientation: pEC50 means −log10 of the EC50, conventionally taken in molar units.
